Data taken from patent publication US4092426A, “Novel aminobenzoic acid derivatives, process for preparing the same and pharmaceutical composition containing the same” (Chugai Seiyaku Kabushiki Kaisha, priority 1975, dated 1978).
Where a name gives a salt, the structure may show the parent alone.

Key:
[1] = system: neutrocyte; assay: Activity for Improving Bacteriocidal Ability in Neutrocyte (NBT test); format: in vivo, JW/CSK strain white male rabbits; conditions: rabbit, oral 100 mg/kg
Procedure: As test animals, JW/CSK strain white male rabbits weighing 3.0 - 3.9 kg were used, dividing them into groups of 5 members each. Each rabbit was orally administered with the test compound, disodium salt of N-2'-carboxyphenyl-4-chloroanthranilic acid in a dose of 100 mg/kg, and 24 hours after the administration, neutrocyte in the blood of the peripheral vessels were reacted with nitrobluetetrazorium (NBT) and then the proportion of cells positive to formazan was measured by a microscope. As the control, the value obtained from the same animal just 3 days before the administration of the test compound was referred to.

[2] = system: Salmonella enteritidis TO-1; assay: Activity for Protecting from Infection by Salmonellae, with streptomycine; format: in vivo; conditions: mouse; oral 2 mg/head; with streptomycine 0.5 mg/head s.c.
Procedure: As test animals, ddY strain male mice (5 week old) which were divided into groups of 7 members each were used. Each mouse was intraperitoneally inoculated with 10^5 Salmonella enteritidis TO-1, and 3 hours after the inoculation, was subcutaneously administered one shot of streptomycine in a dose of 0.5 mg/head.

[3] = system: Sarcoma-180; assay: growth of Sarcoma-180 tumor cells in vitro; format: cell-based
[4] = system: Pseudomonas aeruginosa Pa-II; assay: Activity for Protecting from Infection by Bucillus Pyocyaneous, with carbenicillin; format: in vivo; conditions: mouse; with carbenicillin
Procedure: As test animals, ddY strain male mice (5 week old) which were divided into groups of 9 members each were used. Each mouse was intraperitoneally administered with 10^6 Pseudomonas aeruginosa Pa-II, and 1.5 hours after the administeration, subcutaneously administered one shot of carbenicillin, an antibiotic. The test compound, disodium salt of N-2'-carboxyphenyl-4-chloroanthranilic acid, was orally administered once a day in a dose of 2 mg/head one and two days before the inoculation, respectively. The activity of the test compound was evaluated by observing the test animals for 54 hours after the inoculation.

[5] = system: antibody in blood; assay: Titer of antibody in blood of cortisone-treated mice (hemolysing method); format: in vivo, IV CS strain male mice
Procedure: As test animals, IV CS strain male mice (5 week old) were used by dividing them into groups of 5 members each. Each mouse was intraperitoneally administered with cortisone in a dose of 60 mg/kg once a day for 5 days. Three days after the first administration, the sensitization with an antigen, sheep red blood cell (SRBC), was made by injecting the antigen into the mouse through the tail vein. Each mouse was orally administered with the test compound, disodium salt of N-2'-carboxyphenyl-4-chloroanthranilic acid, a day after the sensitization. Five days after the sensitization, the number of plaque forming cells (PFC) in the spleen was measured in a usual manner.
* Titer of antibody in blood is indicated by a dilution degree of 50%

[6] = system: lymphocites; assay: Activity for Promoting Blastogenesis of Lymphocites (in vivo); set-up: species or system Wistar-Imamichi strain male rats
Procedure: (§1) In this Experiment, influence of the test compound disodium salt of N-2'-carboxyphenyl-4-chloroanthranilic acid on blastogenesis of lymphocites was studied by the use of spleen cells and lymphonoid cells of mouse and rat. For in vitro test, C3 H/He strain male mice and for in vivo Wistar-Imamichi strain male rats were used respectively. Concanavallin A manufactured by Sigma was used as the blastogenetic factor in the in vitro test and lymphocites were cultured by the use of medium of RPMI 1640 manufactured by Grand Island Biological Co. The cultivation of the lymphocites was carried out in the medium at 37° C in a 5% carbon dioxide atmosphere for about 48 hours and after the addition of 0.5 μCi/ml of ^3 H-thymidine, the cells in the medium were incubated for 16 hours and then the lymphocites were separated. The radioactivity of the separated cells was measured by a scintillation counter and the value was evaluated as an indicator of blastogenetic degree. For the in vivo test, the in vitro test was repeated except that each rat was orally administered with the test compound in a dose of 5 or 50 mg/kg. In this case, the rats administered with the test compound were divided into groups of 3 members each and the cells to be cultivated from the rats in each group were placed under the same cultivation conditions. The results of the experiments are shown in FIG. 4 (in vitro) and FIG. 5 (in vivo), respectively.

[7] = system: AH-13; assay: Antitumor Activity to Transplanted Cancer Cells (AH-13); format: in vivo, Donryu strain female rats; conditions: for Average Survival Terms: control 7.1
Excerpt: As test animals, Donryu strain female rats (8 week old) which were divided into groups of 10 members each were used. Each rat was intraperitoneally administered with test compound, disodium salt of N-2'-carboxyphenyl-4-chloroanthranilic acid, once a day for 10 days from 16 days before the inoculation of the tumor cells disclosed hereinbelow. Sixteen days after the first administration of the test compound, each rat was intraperitoneally inoculated with 10^6 tumor cells identified as AH-13 to induce cancer of abdominal dropsy.

[8] = system: triglyceride in liver; assay: Action for decreasing triglyceride in liver (ethanol-induced); format: in vivo, Sprague Dawley strain female rats; conditions: rat, oral 100 mg/kg, 30 min before ethanol 6 g/kg; 24 h; 100 mg/kg
Procedure: Sprague Dawley strain female rats each weighing 170 - 200 g which had been fasted for 15 hours were divided into groups of 4 rats each. The rats were orally administered a different test compound in a dose of 100 mg/kg, and 30 minutes after the administration, orally administered ethanol in a dose of 6 g/kg. Twenty-four hours after the administration of ethanol, the liver of each rat was taken out and neutral lipid level in the liver was measured in a conventional manner to calculate the ratio of preventing an increase in triglyceride content in the liver. For a control group, ethanol and, for the other control group, a glucose aqueous solution equivalent in calorific value to the same amount of ethanol were used and the same manner as those of test groups, and for the positive control group, commercially available 2-mercaptopropionylglycine was used instead of the test compound.
*The % prevention was calculated by the following

[9] = system: lymphocites; assay: Activity for Promoting Blastogenesis of Lymphocites (in vitro); format: cell-based, C3 H/He strain male mice; conditions: 10^-1 to 10^-2 μg/ml
Procedure: as §1, with “The results of the experiments are shown in FIG. 4 (in vitro) and FIG. 5 (in vivo), respectively.” left out

O=C(O)c1ccccc1Nc1cc(Cl)ccc1C(=O)O [disodium salt of N-2'-carboxyphenyl-4-chloroanthranilic acid]
proportion of neutrocyte cells positive to formazan [1]: significantly increased
NBT Value ([1]; 24 h after, before treatment 11.4 ± 1.8, P<0.05, Average ± Standard Deviation): 33.3 ± 7.8%
bacteriocidal activity of the antibiotic with the test compound [2]: improved bacteriocidal activity
direct antitumor activity on Sarcoma-180 cells ([3]; directly on the cells): no antitumor activity directly on the cells
growth of Sarcoma-180 cells in vitro ([3]; in vitro): does not suppress the growth
bacteriocidal activity of the antibiotic with the test compound [4]: improved bacteriocidal activity
Titer of Antibody (dilution degree of 50% hemolysis) ([5]; Cortisone + Test Compound (10 mg/kg)): 10^10
Titer of Antibody (dilution degree of 50% hemolysis) ([5]; Cortisone + Test Compound (50 mg/kg)): 10^6
degree of promotion (S.I. value) of blastogenesis ([6]; rat, oral 5 or 50 mg/kg, one day before Concanavallin A): about twice as large as that of the control
activity of Concanavallin A ([6]; rat, oral 5 or 50 mg/kg, one day before Concanavallin A, vs control): increased to about double
improvement of the activity of Concanavallin A ([6]; rats or mice, four days before Concanavallin A): the improvement of the activity was observed
T/C ([7]; 50 mg/kg i.p.): 163%
host-mediated antitumor activity (AH-13) ([7]; 50 mg/kg i.p.): exhibits host-mediated antitumor activity
Average Survival Terms ([7]; 50 mg/kg i.p.): 11.6 days
T/C ([7]; 100 mg/kg i.p.): 103%
Average Survival Terms ([7]; 100 mg/kg i.p.): 7.3 days
T/C ([7]; 200 mg/kg i.p.): 97%
Average Survival Terms ([7]; 200 mg/kg i.p.): 6.9 days
% Prevention (of increase in triglyceride content in the liver) [8]: 63.6%
activity of Concanavallin A (blastogenesis of lymphocites) [9]: improved the activity of Concanavallin A
